Assay results published in US9975907B2, “Pyrimidinones as PI3K inhibitors” (Incyte Corporation, priority 2009, dated 2018).

How the values were obtained:
PI3Kδ (p110δ/p85α) [1] = biological target: T1, PI3Kδ (p110δ/p85α) (Homo sapiens (Human), UniProt O00329); experiment: PI3Kδ Scintillation Proximity Assay (Assay A3); type: biochemical; conditions: column b, Assay A3 (SPA), 20 μM ATP
In short: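 Human p110δ/p85α (4 nM) with 20 μM diC8-PIP2 and 20 μM ATP plus [γ-33P]ATP, 210 min at room temperature in 20 mM MOPS pH 6.7, 10 mM MgCl2, 5 mM DTT, 0.03% CHAPS, 0.5% DMSO. Product captured on WGA SPA beads in EDTA quench; IC50 from percent-control versus log concentration fit.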

PI3Kδ (p110δ/p85α) [2] = biological target: T1, PI3Kδ (p110δ/p85α); experiment: AlphaScreen Assay for PI3Kδ (Assay A1); type: biochemical; conditions: column a, 20 μM ATP
Description: PI3-Kinase luminescent assay kit including lipid kinase substrate, D-myo-phosphatidylinositol 4,5-bisphosphate (PtdIns(4,5)P2)D (+)-sn-1,2-di-O-octanoylglyceryl, 3-O-phospho linked (PIP2), biotinylated I(1,3,4,5)P4, PI(3,4,5)P3 Detector Protein, was purchased from Echelon Biosciences (Salt Lake City, Utah). AlphaScreen™ GST Detection Kit including donor and acceptor beads was purchased from PerkinElmer Life Sciences (Waltham, Mass.). PI3Kδ (p110δ/p85α) was purchased from Millipore (Bedford, Mass.). ATP, MgCb, DTT, EDTA, HEPES and CHAPS were purchased from Sigma-Aldrich (St. Louis, Mo.).
AlphaScreen™ Assay for PI3Kδ
The kinase reaction was conducted in 384-well REMP plate from Thermo Fisher Scientific in a final volume of 40 μL. Inhibitors were first diluted serially in DMSO and added to the plate wells before the addition of other reaction components. The final concentration of DMSO in the assay was 2%. The PI3K assays were carried out at room temperature in 50 mM HEPES, pH 7.4, 5 mM MgCl2, 50 mM NaCl, 5 mM DTT and CHAPS 0.04%. Reactions were initiated by the addition of ATP, the final reaction mixture consisted of 20 μM PIP2, 20 μM ATP, 1.2 nM PI3Kδ were incubated for 20 min. 10 μL of reaction mixture was then transferred to 5 μL 50 nM biotinylated I(1,3,4,5)P4 in quench buffer: 50 mM HEPES pH 7.4, 150 mM NaCl, 10 mM EDTA, 5 mM DTT, 0.1% Tween-20, followed with the addition of 10 μL AlphaScreen™ donor and acceptor beads suspended in quench buffer containing 25 nM PI(3,4,5)P3 detector protein. The final concentration of both donor and acceptor beads is […]. After plate sealing, the plate was incubated in a dark location at room temperature for 2 hours. The activity of the product was determined on Fusion-alpha microplate reader (Perkin-Elmer). IC50 determination was performed by fitting the curve of percent control activity versus the log of the inhibitor concentration using the GraphPad Prism 3.0 software.

[3] = test system: purified B cells from human PBMC; experiment: B Cell Proliferation Assay; type: cell-based; conditions: anti-human IgM stimulated, three days, [3H]-thymidine incorporation
Description: To acquire B cells, human PBMC were isolated from the peripheral blood of normal, drug free donors by standard density gradient centrifugation on Ficoll-Hypague (GE Healthcare, Piscataway, N.J.) and incubated with anti-CD19 microbeads (Miltenyi Biotech, Auburn, Calif.). The B cells were then purified by positive immunosorting using an autoMacs (Miltenyi Biotech) according to the manufacturer's instruction.
The purified B cells (2×10^5/well/200 μL) were cultured in 96-well ultra-low binding plates (Corning, Corning, N.Y.) in RPMI1640, 10% FBS and goat F(ab′)2 anti-human IgM (10 μg/ml) (Invitrogen, Carlsbad, Calif.), in the presence of different amount of test compounds, for three days. [^3H]-thymidine (1 μCi/well) (PerkinElmer, Boston, Mass.) in PBS was then added to the B cell cultures for an additional 12 hrs before the incorporated radioactivity was separated by filtration with water through GF/B filters (Packard Bioscience, Meriden, Conn.) and measured by liquid scintillation counting with a TopCount (Packard Bioscience). Compounds having and IC^50 value of 10 μM or less are considered active. See Table 2 for data related to compounds of the invention.

[4] = test system: Pfeiffer cell line (diffuse large B cell lymphoma); experiment: Pfeiffer Cell Proliferation Assay; type: cell-based; conditions: Homo sapiens, Pfeiffer, 3-4 days, [3H]-thymidine incorporation
Description: Pfeiffer cell line (diffuse large B cell lymphoma) was purchased from ATCC (Manassas, Va.) and maintained in the culture medium recommended (RPMI and 10% FBS). To measure the anti-proliferation activity of the PI3Kδ submittals, the Pfeiffer cells were plated with the culture medium (2×10^3 cells/well/per 200 μl) into 96-well ultra-low binding plates (Corning, Corning, N.Y.), in the presence or absence of a concentration range of test compounds. After 3-4 days, [^3H]-thymidine (1 μCi/well) (PerkinElmer, Boston, Mass.) in PBS was then added to the cell culture for an additional 12 hrs before the incorporated radioactivity was separated by filtration with water through GF/B filters (Packard Bioscience, Meriden, Conn.) and measured by liquid scintillation counting with a TopCount (Packard Bioscience). See Table 3 for data related to compounds of the invention.

PI3Kδ = PI3Kδ (Homo sapiens (Human), UniProt O00329); experiment: PI3K Enzyme Assay A2 ([γ-33P]ATP filter plate), PI3Kδ; type: biochemical; conditions: column a, Examples 15, 30 and 44 used Assay A2, 1000 μM ATP
PI3Kδ, sequence (O00329 whole entry, species assumed, canonical isoform): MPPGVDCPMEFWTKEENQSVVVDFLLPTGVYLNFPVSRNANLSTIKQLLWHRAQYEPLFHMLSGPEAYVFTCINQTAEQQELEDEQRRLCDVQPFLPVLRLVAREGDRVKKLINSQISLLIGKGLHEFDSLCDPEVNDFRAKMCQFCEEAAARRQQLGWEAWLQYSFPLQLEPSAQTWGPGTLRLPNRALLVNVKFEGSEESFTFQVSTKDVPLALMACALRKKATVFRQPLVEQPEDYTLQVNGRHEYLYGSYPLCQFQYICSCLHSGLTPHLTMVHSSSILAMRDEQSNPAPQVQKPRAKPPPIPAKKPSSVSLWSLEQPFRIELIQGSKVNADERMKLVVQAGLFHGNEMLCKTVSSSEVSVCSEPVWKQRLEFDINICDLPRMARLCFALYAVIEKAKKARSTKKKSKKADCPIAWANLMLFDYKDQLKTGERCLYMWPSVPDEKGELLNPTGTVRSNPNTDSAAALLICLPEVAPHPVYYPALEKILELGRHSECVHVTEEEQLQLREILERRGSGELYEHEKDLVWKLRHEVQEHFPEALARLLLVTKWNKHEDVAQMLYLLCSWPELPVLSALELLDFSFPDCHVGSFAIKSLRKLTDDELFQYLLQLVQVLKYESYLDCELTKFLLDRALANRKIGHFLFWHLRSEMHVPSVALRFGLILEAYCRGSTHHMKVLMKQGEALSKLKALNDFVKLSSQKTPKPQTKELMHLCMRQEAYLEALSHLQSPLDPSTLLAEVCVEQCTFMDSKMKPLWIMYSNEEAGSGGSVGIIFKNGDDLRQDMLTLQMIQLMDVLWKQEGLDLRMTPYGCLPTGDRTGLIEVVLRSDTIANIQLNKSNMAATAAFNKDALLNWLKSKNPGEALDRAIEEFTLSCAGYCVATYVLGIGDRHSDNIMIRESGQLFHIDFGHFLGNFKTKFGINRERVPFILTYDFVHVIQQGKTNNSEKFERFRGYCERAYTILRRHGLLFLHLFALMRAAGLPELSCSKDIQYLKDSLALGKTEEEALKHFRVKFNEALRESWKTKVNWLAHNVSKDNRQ
PI3Kδ, sequence (P27986 whole entry partner, species assumed, canonical isoform): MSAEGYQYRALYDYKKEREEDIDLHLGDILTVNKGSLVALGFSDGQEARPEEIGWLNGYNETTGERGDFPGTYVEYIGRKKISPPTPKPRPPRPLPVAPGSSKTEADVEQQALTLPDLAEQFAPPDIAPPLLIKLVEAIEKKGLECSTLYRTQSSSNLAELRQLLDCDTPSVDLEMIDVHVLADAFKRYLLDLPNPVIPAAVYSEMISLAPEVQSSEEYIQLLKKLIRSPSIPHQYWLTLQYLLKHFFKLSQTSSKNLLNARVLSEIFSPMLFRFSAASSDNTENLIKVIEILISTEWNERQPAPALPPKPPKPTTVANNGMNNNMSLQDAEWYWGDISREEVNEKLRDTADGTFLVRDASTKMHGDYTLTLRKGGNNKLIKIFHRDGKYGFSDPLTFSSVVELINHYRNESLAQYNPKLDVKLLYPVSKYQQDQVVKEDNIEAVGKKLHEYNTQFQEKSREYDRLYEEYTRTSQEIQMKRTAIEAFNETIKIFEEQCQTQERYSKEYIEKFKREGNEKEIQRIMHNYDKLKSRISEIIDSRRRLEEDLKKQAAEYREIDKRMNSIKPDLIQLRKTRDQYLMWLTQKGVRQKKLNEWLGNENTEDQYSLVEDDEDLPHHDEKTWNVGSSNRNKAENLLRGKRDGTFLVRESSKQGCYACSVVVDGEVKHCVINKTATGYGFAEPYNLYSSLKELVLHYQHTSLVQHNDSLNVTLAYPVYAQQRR
Description: Materials: Lipid kinase substrate, phosphoinositol-4,5-bisphosphate (PIP2), was purchased from Echelon Biosciences (Salt Lake City, Utah). PI3K isoforms α, β, δ and γ were purchased from Millipore (Bedford, Mass.). ATP, MgCh, DTT, EDTA, MOPS and CHAPS were purchased from Sigma-Aldrich (St. Louis, Mo.). The kinase reaction was conducted in clear-bottom 96-well plate from Thermo Fisher Scientific in a final volume of 24 μL. Inhibitors were first diluted serially in DMSO and added to the plate wells before the addition of other reaction components. The final concentration of DMSO in the assay was 0.5%. The PI3K assays were carried out at room temperature in 20 mM MOPS, pH 6.7, 10 mM MgCl2, 5 mM DTT and CHAPS 0.03%. The reaction mixture was prepared containing 50 μM PIP2, kinase and varying concentration of inhibitors. Reactions were initiated by the addition of ATP containing 2.2 μCi [γ-^33P]ATP to a final concentration of 1000 μM. […] Reactions were incubated for 180 min and terminated by the addition of 100 μL of 1 M potassium phosphate pH 8.0, 30 mM EDTA quench buffer. […] After the plate sealing, the radioactivity of the product was determined by scintillation counting on Topcount (Perkin-Elmer). […]

T1 sequence (O00329 whole entry, species assumed): as the sequence (O00329 whole entry, species assumed, canonical isoform) above
T1 sequence (P27986 whole entry partner, species assumed): as the sequence (P27986 whole entry partner, species assumed, canonical isoform) above

IC50 (PI3Kδ (p110δ/p85α) [1]) | IC50 (PI3Kδ (p110δ/p85α) [2]) | IC50 [4] | IC50 (PI3Kδ) | SMILES | IC50 [3]
< 50 nM | < 50 nM | – | – | Cc1csc2nc(C(C)Nc3ncnc4[nH]cnc34)c(-c3cc(F)cc(F)c3)c(=O)n12 (stereo not drawn) [Example 12, 6-(3,5-difluorophenyl)-3-methyl-7-[1-(9H-purin-6-ylamino)ethyl]-5H-[1,3]thiazolo[3,2-a]pyrimidin-5-one] | < 50 nM
– | – | < 50 nM | < 50 nM | Cc1csc2nc(C(C)Nc3ncnc4[nH]cnc34)c(-c3cc(F)cc(F)c3)c(=O)n12 (single isomer, unassigned) [Example 44, 6-(3,5-difluorophenyl)-3-methyl-7-[1-(9H-purin-6-ylamino)ethyl]-5H-[1,3]thiazolo[3,2-a]pyrimidin-5-one] | < 50 nM
